Results reported in ChEMBL document CHEMBL6096706, “Discovery of WDR5-MLL1 and HDAC Dual-Target Inhibitors for the Treatment of Acute Myeloid Leukemia” (J Med Chem, 2025).

What was measured:
Histone deacetylase 11 = biological target: T1, Histone deacetylase 11 (Homo sapiens, UniProt Q96DB2); assay: Inhibition of HDAC11 (unknown origin) by fluorescence based assay
T1 sequence (Q96DB2 whole entry): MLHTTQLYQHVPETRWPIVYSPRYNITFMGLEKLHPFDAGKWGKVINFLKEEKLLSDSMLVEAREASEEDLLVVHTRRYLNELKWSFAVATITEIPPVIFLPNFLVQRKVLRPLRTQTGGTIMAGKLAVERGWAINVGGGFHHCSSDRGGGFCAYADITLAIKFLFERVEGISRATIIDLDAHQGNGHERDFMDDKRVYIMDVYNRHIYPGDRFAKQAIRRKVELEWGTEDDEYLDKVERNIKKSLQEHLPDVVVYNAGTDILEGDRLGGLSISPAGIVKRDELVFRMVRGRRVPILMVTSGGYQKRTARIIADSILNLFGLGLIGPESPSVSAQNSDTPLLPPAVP

MV4-11 [1] = assay: Induction of apoptosis in human MV4-11 cells assessed as viable cells at 100 nmol/L incubated for 72 hrs by Annexin V/PI staining based flow cytometry analysis (reference value: 90.23%); format: functional; conditions: read-out: Activity
MV4-11 [2] = assay: Antitumor activity against human MV4-11 cells xenografted in mouse assessed as tumor growth inhibition at 30 mg/kg, ip administered daily for 17 days; format: functional; conditions: MV4-11, 408 h, time 17 day, read-out: TGI
[3] = Toxicity in mouse implanted in human MV4-11 cells assessed as animal death at 10 to 30 mg/kg, ip administered daily for 17 days; format: organism-based; conditions: in vivo, 408 h, dose 10-30 mg/kg, time 17 day
Histone deacetylase 8 = biological target: T2, Histone deacetylase 8 (Homo sapiens, UniProt Q9BY41); assay: Inhibition of HDAC8 (unknown origin) by fluorescence based assay
T2 sequence (Q9BY41 whole entry): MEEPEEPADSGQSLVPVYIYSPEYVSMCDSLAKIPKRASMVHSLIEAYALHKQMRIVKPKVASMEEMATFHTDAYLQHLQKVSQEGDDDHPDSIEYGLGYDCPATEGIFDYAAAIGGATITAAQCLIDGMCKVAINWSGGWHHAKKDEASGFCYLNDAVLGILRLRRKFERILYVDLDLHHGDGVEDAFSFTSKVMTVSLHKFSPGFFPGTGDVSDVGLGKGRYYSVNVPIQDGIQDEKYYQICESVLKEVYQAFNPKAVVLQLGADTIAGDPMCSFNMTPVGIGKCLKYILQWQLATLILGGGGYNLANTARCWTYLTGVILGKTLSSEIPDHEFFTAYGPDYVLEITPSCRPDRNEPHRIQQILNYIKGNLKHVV

MV4-11 [4] = assay: Antitumor activity against human MV4-11 cells xenografted in mouse assessed as tumor growth inhibition at 10 mg/kg, ip administered daily for 17 days; format: functional; conditions: MV4-11, 408 h, time 17 day, read-out: TGI
[5] = biological target: Histone-lysine N-methyltransferase 2A/WDR5 (Homo sapiens, UniProt P61964); assay: Inhibition of MLL1/WDR5 (unknown origin) protein-protein interaction incubated for 2 hrs by FP analysis; format: protein assay
Histone deacetylase 4 = Histone deacetylase 4 (Homo sapiens, UniProt P56524); assay: Inhibition of HDAC4 (unknown origin) by fluorescence based assay
Histone deacetylase 4, sequence (P56524 whole entry): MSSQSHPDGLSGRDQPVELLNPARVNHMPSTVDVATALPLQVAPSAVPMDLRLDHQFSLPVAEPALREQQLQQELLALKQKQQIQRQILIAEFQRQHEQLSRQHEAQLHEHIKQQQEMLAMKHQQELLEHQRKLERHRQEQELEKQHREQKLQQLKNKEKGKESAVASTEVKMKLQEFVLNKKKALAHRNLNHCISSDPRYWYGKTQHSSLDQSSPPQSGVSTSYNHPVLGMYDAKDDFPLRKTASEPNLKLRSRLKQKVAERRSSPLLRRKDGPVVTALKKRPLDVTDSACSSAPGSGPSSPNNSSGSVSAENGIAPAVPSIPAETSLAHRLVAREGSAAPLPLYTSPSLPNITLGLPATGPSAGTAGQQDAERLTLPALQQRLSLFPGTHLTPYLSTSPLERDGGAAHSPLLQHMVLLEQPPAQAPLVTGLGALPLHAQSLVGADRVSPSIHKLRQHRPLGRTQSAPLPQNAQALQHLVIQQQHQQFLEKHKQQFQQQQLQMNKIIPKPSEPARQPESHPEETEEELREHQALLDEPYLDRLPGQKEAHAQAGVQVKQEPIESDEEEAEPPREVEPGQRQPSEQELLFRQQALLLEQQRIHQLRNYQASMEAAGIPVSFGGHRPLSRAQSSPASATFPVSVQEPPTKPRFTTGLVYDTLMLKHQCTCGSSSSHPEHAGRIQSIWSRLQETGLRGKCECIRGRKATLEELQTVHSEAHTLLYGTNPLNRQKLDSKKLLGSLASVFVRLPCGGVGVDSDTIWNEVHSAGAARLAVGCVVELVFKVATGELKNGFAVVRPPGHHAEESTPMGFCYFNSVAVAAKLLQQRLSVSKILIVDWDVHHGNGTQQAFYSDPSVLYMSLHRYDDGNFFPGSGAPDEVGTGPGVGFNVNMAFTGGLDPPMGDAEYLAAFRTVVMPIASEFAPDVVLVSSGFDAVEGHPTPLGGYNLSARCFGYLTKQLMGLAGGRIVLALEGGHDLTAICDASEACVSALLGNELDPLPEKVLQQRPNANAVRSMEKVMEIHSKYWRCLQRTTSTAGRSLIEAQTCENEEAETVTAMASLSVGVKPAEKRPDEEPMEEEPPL

MV4-11 [6] = assay: Antiproliferative activity against human MV4-11 cells assessed as growth inhibition at 0.05 uM measured after 72 hrs in presence of 0.1 uM of vorinostat by CellTiterGlo assay; format: functional; conditions: read-out: GI
MV4-11 [7] = assay: Antiproliferative activity against human MV4-11 cells assessed as growth inhibition at 0.4 uM measured after 72 hrs in presence of 0.05 uM of vorinostat by CellTiterGlo assay; format: functional; conditions: read-out: GI
MV4-11 [8] = assay: Antiproliferative activity against human MV4-11 cells assessed as growth inhibition at 0.2 uM measured after 72 hrs in presence of 0.05 uM of vorinostat by CellTiterGlo assay; format: functional; conditions: read-out: GI
MV4-11 [9] = assay: Induction of apoptosis in human MV4-11 cells assessed as necrotic cells at 200 nM incubated for 72 hrs by Annexin V/PI staining based flow cytometry analysis (reference value: 2.61%); format: functional
MV4-11 [10] = assay: Antiproliferative activity against human MV4-11 cells assessed as growth inhibition at 0.5 uM measured after 72 hrs in presence of 0.4 uM of vorinostat by CellTiterGlo assay; format: functional; conditions: read-out: GI
MV4-11 [11] = assay: Antiproliferative activity against human MV4-11 cells assessed as growth inhibition at 0.05 uM measured after 72 hrs in presence of 0.5 uM of vorinostat by CellTiterGlo assay; format: functional; conditions: read-out: GI
MV4-11 [12] = assay: Antiproliferative activity against human MV4-11 cells assessed as growth inhibition at 2 uM measured after 72 hrs in presence of 1 uM of vorinostat by CellTiterGlo assay; format: functional; conditions: read-out: GI
MV4-11 [13] = assay: Antiproliferative activity against human MV4-11 cells assessed as growth inhibition at 0.5 uM measured after 72 hrs in presence of 0.2 uM of vorinostat by CellTiterGlo assay; format: functional; conditions: read-out: GI
MV4-11 [14] = assay: Antiproliferative activity against human MV4-11 cells assessed as growth inhibition at 0.2 uM measured after 72 hrs in presence of 1 uM of vorinostat by CellTiterGlo assay; format: functional; conditions: read-out: GI
MV4-11 [15] = assay: Antiproliferative activity against human MV4-11 cells assessed as growth inhibition at 1 uM measured after 72 hrs in presence of 0.5 uM of vorinostat by CellTiterGlo assay; format: functional; conditions: read-out: GI
MV4-11 [16] = assay: Antiproliferative activity against human MV4-11 cells assessed as growth inhibition at 0.1 uM measured after 72 hrs by CellTiterGlo assay; format: functional; conditions: read-out: GI
MV4-11 [17] = assay: Antiproliferative activity against human MV4-11 cells assessed as growth inhibition at 0.1 uM measured after 72 hrs in presence of 1 uM of vorinostat by CellTiterGlo assay; format: functional; conditions: read-out: GI

Cc1c(F)c(N)cc(C(=O)Nc2cc(-c3ccc(C(=O)NCc4ccc(/C=C/C(=O)NO)cc4)cc3)ccc2N2CCN(C)CC2)c1Cl
IC50 (Histone deacetylase 11): > 10 µM
viability at 0.1 µM (MV4-11 [1]): 71.5%
inhibition in vivo at 30 mg/kg (MV4-11 [2]): 87.1%
Activity [3]: Non-toxic
IC50 (Histone deacetylase 8): 5.3 µM
inhibition in vivo at 10 mg/kg (MV4-11 [4]): 42.3%
IC50 [5]: 0.042 µM
IC50 (Histone deacetylase 4): 4.69 µM

Cc1c(F)c(N)cc(C(=O)Nc2cc(-c3ccc(C(=O)N4CCOCC4)cc3)ccc2N2CCN(C)CC2)c1Cl
inhibition of growth at 0.05 µM (MV4-11 [6]): 34.5%
inhibition of growth at 0.4 µM (MV4-11 [7]): 40%
inhibition of growth at 0.2 µM (MV4-11 [8]): 36.8%
Activity (MV4-11 [9]): 1.62%
inhibition of growth at 0.5 µM (MV4-11 [10]): 65.2%
inhibition of growth at 0.05 µM (MV4-11 [11]): 73.2%
inhibition of growth at 2 µM (MV4-11 [12]): 95.6%
inhibition of growth at 0.5 µM (MV4-11 [13]): 58.9%
inhibition of growth at 0.2 µM (MV4-11 [14]): 88.2%
inhibition of growth at 1 µM (MV4-11 [15]): 77.1%
inhibition of growth at 0.1 µM (MV4-11 [16]): 19.4%
inhibition of growth at 0.1 µM (MV4-11 [17]): 88.1%
